Measured values published in patent US20220169629A1, “PESTICIDALLY ACTIVE DIAZINE-AMIDE COMPOUNDS” (SYNGENTA CROP PROTECTION AG, priority 2019, published 2022).

Experiments:
Assay type in all cases: in vivo
[1] = tested on: Plutella xylostella (diamond back moth); experiment: Example B5: Plutella xylostella (diamond back moth), artificial diet, 24-well, eggs; details: 192 h, application rate of 200 ppm, 8 days after infestation, read-out: control in at least one of the two categories (mortality or growth inhibition)
Procedure: Example B5: Plutella xylostella (Diamond Back Moth)
24-well microtiter plates with artificial diet were treated with aqueous test solutions prepared from 10′000 ppm DMSO stock solutions by pipetting. After drying, Plutella eggs were pipetted through a plastic stencil onto a gel blotting paper and the plate was closed with it. The samples were assessed for mortality and growth inhibition in comparison to untreated samples 8 days after infestation.

[2] = tested on: Diabrotica balteata (corn root worm); experiment: Example B1: Diabrotica balteata (corn root worm), sprayed maize sprouts, L2 larvae; details: 96 h, application rate of 200 ppm, 4 days after infestation, L2 larvae on maize sprouts, read-out: control in at least one of the two categories (mortality or growth inhibition)
Procedure: Example B1: Diabrotica Balteata (Corn Root Worm)
Maize sprouts placed onto an agar layer in 24-well microtiter plates were treated with aqueous test solutions prepared from 10′000 ppm DMSO stock solutions by spraying. After drying, the plates were infested with L2 larvae (6 to 10 per well). The samples were assessed for mortality and growth inhibition in comparison to untreated samples 4 days after infestation.

[3] = tested on: Spodoptera littoralis (Egyptian cotton leaf worm); experiment: Example B7: Spodoptera littoralis (Egyptian cotton leaf worm), sprayed cotton leaf discs, L1 larvae; details: foliar, 72 h, application rate of 200 ppm, 3 days after infestation, L1 larvae on cotton leaf discs, read-out: control in at least one of the three categories (mortality, anti-feeding or growth inhibition)
Procedure: Example B7: Spodoptera littoralis (Egyptian Cotton Leaf Worm)
Cotton leaf discs were placed onto agar in 24-well microtiter plates and sprayed with aqueous test solutions prepared from 10′000 ppm DMSO stock solutions. After drying the leaf discs were infested with five L1 larvae. The samples were assessed for mortality, anti-feeding effect, and growth inhibition in comparison to untreated samples 3 days after infestation. Control of Spodoptera littoralis by a test sample is given when at least one of the categories mortality, anti-feedant effect, and growth inhibition is higher than the untreated sample.

[4] = tested on: Chilo suppressalis (striped rice stemborer); experiment: Example B4: Chilo suppressalis (striped rice stemborer), artificial diet, L2 larvae; details: 144 h, application rate of 200 ppm, 6 days after infestation, L2 larvae on artificial diet, read-out: control in at least one of the three categories (mortality, anti-feeding or growth inhibition)
Procedure: Example B4: Chilo suppressalis (Striped rice stemborer)
24-well microtiter plates with artificial diet were treated with aqueous test solutions prepared from 10′000 ppm DMSO stock solutions by pipetting. After drying, the plates were infested with L2 larvae (6-8 per well). The samples were assessed for mortality, anti-feeding effect, and growth inhibition in comparison to untreated samples 6 days after infestation. Control of Chilo suppressalis by a test sample is given when at least one of the categories mortality, anti-feedant effect, and growth inhibition is higher than the untreated sample.

CC(NC(=O)c1cc(Cl)cc(C(F)(F)F)c1)c1nccnc1-c1ccc(C#N)cn1 (stereo not drawn) [Compound P7, 3-chloro-N-[1-[3-(5-cyano-2-pyridyl)pyrazin-2-yl]ethyl]-5-(trifluoromethyl)benzamide]
≥ 80%: percent control (mortality or growth inhibition) at 200 ppm [1] | percent control (mortality or growth inhibition) at 200 ppm [2] | percent control (mortality, anti-feeding or growth inhibition) at 200 ppm [3] | control at 200 ppm [4]

CC(NC(=O)c1cc(OCC(F)(F)F)cc(C(F)(F)F)c1)c1nccnc1-c1ccc(OC(F)F)cn1 (stereo not drawn) [Compound P6, N-[1-[3-[5-(difluoromethoxy)-2-pyridyl]pyrazin-2-yl]ethyl]-3-(2,2,2-trifluoroethoxy)-5-(trifluoromethyl)benzamide]
≥ 80%: percent control (mortality or growth inhibition) at 200 ppm [1] | percent control (mortality or growth inhibition) at 200 ppm [2] | percent control (mortality, anti-feeding or growth inhibition) at 200 ppm [3] | control at 200 ppm [4]

CC(NC(=O)c1cc(Cl)cc(C(F)(F)F)c1)c1nccnc1-c1ccc(OC(F)F)cn1 (stereo not drawn) [Compound P8, 3-chloro-N-[1-[3-[5-(difluoromethoxy)-2-pyridyl]pyrazin-2-yl]ethyl]-5-(trifluoromethyl)benzamide]
≥ 80%: percent control (mortality or growth inhibition) at 200 ppm [1] | percent control (mortality or growth inhibition) at 200 ppm [2] | percent control (mortality, anti-feeding or growth inhibition) at 200 ppm [3] | control at 200 ppm [4]

CC(NC(=O)c1cc(Br)cc(C(F)(F)F)c1)c1nccnc1-c1ccc(C#N)cn1 (stereo not drawn) [Compound P10, 3-bromo-N-[1-[3-(5-cyano-2-pyridyl)pyrazin-2-yl]ethyl]-5-(trifluoromethyl)benzamide]
≥ 80%: percent control (mortality or growth inhibition) at 200 ppm [1] | percent control (mortality or growth inhibition) at 200 ppm [2] | percent control (mortality, anti-feeding or growth inhibition) at 200 ppm [3] | control at 200 ppm [4]

CC(NC(=O)c1cc(OCC(F)F)cc(C(F)(F)F)c1)c1nccnc1-c1ccc(OC(F)F)cn1 (stereo not drawn) [Compound P2, 3-(2,2-difluoroethoxy)-N-[1-[3-[5-(difluoromethoxy)-2-pyridyl]pyrazin-2-yl]ethyl]-5-(trifluoromethyl)benzamide]
≥ 80%: percent control (mortality or growth inhibition) at 200 ppm [1] | percent control (mortality, anti-feeding or growth inhibition) at 200 ppm [3] | control at 200 ppm [4]

CC(NC(=O)c1cc(Cl)cc(C(F)(F)F)c1)c1nccnc1-c1ncc(OCC(F)F)cn1 (stereo not drawn) [Compound P36, 3-chloro-N-[1-[3-[5-(2,2-difluoroethoxy)pyrimidin-2-yl]pyrazin-2-yl]ethyl]-5-(trifluoromethyl)benzamide]
≥ 80%: percent control (mortality or growth inhibition) at 200 ppm [1] | percent control (mortality, anti-feeding or growth inhibition) at 200 ppm [3]

CC(NC(=O)c1cc(OCC(F)(F)F)cc(C(F)(F)F)c1)c1nccnc1-c1ncc(OCC(F)F)cn1 (stereo not drawn) [Compound P38, N-[1-[3-[5-(2,2-difluoroethoxy)pyrimidin-2-yl]pyrazin-2-yl]ethyl]-3-(2,2,2-trifluoroethoxy)-5-(trifluoromethyl)benzamide]
≥ 80%: percent control (mortality or growth inhibition) at 200 ppm [1] | percent control (mortality, anti-feeding or growth inhibition) at 200 ppm [3] | control at 200 ppm [4]

CC(NC(=O)c1cc(OCC(F)F)cc(C(F)(F)F)c1)c1nccnc1-c1ncc(OCC(F)F)cn1 (stereo not drawn) [Compound P32, 3-(2,2-difluoroethoxy)-N-[1-[3-[5-(2,2-difluoroethoxy)pyrimidin-2-yl]pyrazin-2-yl]ethyl]-5-(trifluoromethyl)benzamide]
≥ 80%: percent control (mortality or growth inhibition) at 200 ppm [1] | percent control (mortality, anti-feeding or growth inhibition) at 200 ppm [3] | control at 200 ppm [4]
